We go through five molecules from patent publication US7807396B2, “Insulin degrading enzyme assays for treatment of alzheimer's disease” (University of Kentucky Research Foundation, priority 2000, dated 2010).

The subject of data set [1] is neprilysin mRNA. The data set is described as follows: In situ hybridization of neprilysin mRNA in hippocampus of ovariectomized rats. Particulars: 17β-estradiol pellets, 3 weeks. The class given is in vivo, rat. The text has this: Using in situ hybridization we administered antisense probes for each of exons 1, 2, 3, and 4 (R1, R2, R3 and R4, respectively) to the brains of ovariectomized rats, some of which also received estrogen replacement therapy. Adult female Sprague-Dawley rats (approximate weight 300 grams) were used to study the effects of ovariectomy and estradiol supplementation on neprilysin expression levels and activity. In situ hybridization was used to measure neprilysin mRNA levels while a coupled chromogenic assay [Li, C. and Hersh, L. B. Neprilysin: Assay Methods, Purification and Characterization. Methods in Enzymology. 248, 253-263 (1995)] was used to measure neprilysin activity. […]
Images on autoradiographic film were analyzed with computer-aided densitometry (MCID-M1, Imaging Research, St. Catharines, Ontario, Canada). Optical density values of the [^14C] microscales were obtained and a correlating log-log linear least-squares fit was calculated (r^2>0.99). […] The optical density of each defined region was determined for the neuronal somal layer of area CA1 (stratum pyramidale), CA3 and dentate gyrus (stratum granulosum). Identification of brain regions was determined using the atlas of Paxinos and Watson (G. Paxinos, C. Watson, The rat Brain in Stereotaxic Coordinates, second Edition, Academic Press, Australia, 1986).

The subject of data set [2] is neprilysin. The data set is described as follows: Neprilysin enzyme activity in rat brain tissue lysates, two-step assay. The data set is classed as in vivo. Particulars: 17β-estradiol pellets, 3 weeks.
Method: Adult female Sprague-Dawley rats (approximate weight 300 grams) were used to study the effects of ovariectomy and estradiol supplementation on neprilysin expression levels and activity. […] Ovariectomy was performed at 13 weeks of age and sham-surgery was performed on littermate animals to provide a control group. For estrogen replacement groups, ovariectomized animals were implanted with 17β-estradiol pellets (Innovative Research of America, Sarasota, Fla., USA). Rats were killed 3 weeks later after implantation. The brains were rapidly removed, quickly frozen over dry ice, and stored at −80° C. until father processing. […] The brains were used either for in situ hybridization or for neprilysin activity measurements as noted above.
In this assay glutaryl-Ala-Phe-4-methoxy-2-naphthylamide is cleaved to glutaryl-Ala-Ala and Phe-4-methoxy-2-naphthylamide. An aminopetidase is then used to cleave the Phe-4-methoxy-2-naphthylamide releasing fluorescent 4-methoxy-2-naphthylamine which is quantified on a spectrofluorometer.
The tissue lysates were evaluated for neprilysin enzymatic activity using a two-step chromogenic assay. […] The 4-methoxy-2-naphthylamine was quantified spectrofluorimetrically at an excitation wavelength of 340 nm and an emission wavelength of 425 nm. […]
The test system of data set [3] is primary rat cortical neurons. Put plainly: Neuroprotection / neurotoxicity assay in primary rat cortical neurons. The class given is cell-based.
Method: Neurotoxicity assays were performed as described by Estus et. al. (Estus et al. (1997) J Neurosci 17:7736-7745) using embryonic day 18 rat fetuses to establish primary rat cortical neuron cultures. Rat brain cortical cells were initially cultured in AM0 media for 3-5 hrs in 16 well chamber slides (Nalge Nunc International, Rochester, N.Y.) pre-coated with polyethyleneimine at a density of ˜1×10^5 cells per well. The culture was enriched in neurons by replacement of the AM0 media with Dulbecco's modified Eagle's medium (DMEM, Life Technologies, Rockville, Md.) containing 100 units/ml penicillin, 100 μg/ml streptomycin and 2% B27 serum supplement (Life Technologies, Rockville, Md.).
Cells were treated with Aβ peptides and then fixed with 4% paraformaldehyde for 15 min. at room temperature. After washing the cells with PBS they were then stained with Hoechst 33258 at 1 μg/ml for 10 minutes. Neurons were then visualized by fluorescence microscopy. Those cells with uniformly dispersed chromatin were scored as survivors, while those cells containing condensed chromatin were scored as non-survivors. Readings were typically taken in triplicate with a minimum of 250 neurons scored from each well. Cells treated as described above were visualized using a Nikon microscope equipped with a Hoffman modulation contrast lens. Statistical analysis was performed on the samples using ANOVA.
To test this, rat cortical neurons were treated with Aβ peptides in the presence and absence of insulysin. Preliminary experiments were performed to obtain a suitable Aβ peptide concentration that would show a significant cytotoxic effect, as there are batch to batch variations in the ability of the Aβ peptides to mediate cytotoxic effects on cells in culture.
The cell based assay using primary rat cortical neurons was used to determine whether the insulysin cleavage products of the Aβ peptides were themselves neurotoxic. Recombinant insulysin at concentrations ranging from 0.5 to 5000 ng was added simultaneously with the Aβ peptides to the cortical cultures.
The target of data set [4] is T1, insulysin (Rattus norvegicus, UniProt P35559).
T1 construct: His6 (N); made in house; host or cells: Sf9 cells, baculovirus (pFASTBAC)
Put plainly: Insulysin activity with fluorogenic peptide Abz-[…]-EDDnp. The settings on record: increasing concentrations of the peptide. The data set is classed as biochemical. The method, then: Referring to FIG. 16, the effect of increasing the concentration of the peptide dynorphin B-9 on insulysin activity is shown. Insulysin activity was measured with the fluorogenic peptide Abz-[…]-EDDnp (SEQ ID No: 14) in the presence of increasing concentrations of the peptide. This peptide contains the fluorescent […] (Abz) which is internally quenched by the 2,4-dinitrophenyl moiety.
Referring to FIG. 17, the effect of increasing the concentration of several different peptides on insulysin activity is summarized. Insulysin activity was measured with the fluorogenic peptide Abz-[…]-EDDnp (SEQ ID NO: 14) in the presence of increasing concentrations of the peptide.

Data set [5] addresses T2, Aβ1-40 (Homo sapiens, UniProt P05067). Put plainly: Aβ1-40 deposition assay onto synthetic amyloid (synthaloid). Further details: purchased Amersham (125I-Aβ); QCB/BioSource (synthaloid plates). The class given is biochemical. The procedure: A protocol was used where amyloid beta 1-40 (Aβ1-40) is initially deposited onto a 96 well microtiter plate. Radioactive (^125I labeled) Aβ1-40 is then added to the wells of this plate where it further adds to the Aβ1-40 deposited. This mimics the deposition of Aβ1-40 seen in the brains of Alzheimer patients.
96 well plates were pre-coated with Aβ1-40. In the control, 100 pM of ^125I-Aβ1-40 was deposited onto the pre-deposited Aβ1-40 plaque for three hours (lane 1). insulysin was added at concentrations of 500 ng, 50 ng and 5 ng to the wells along with ^125I-Aβ1-40 for three hours (lanes 2 to 4).
Beta amyloid deposition assays were conducted as described by Esler et. al. (Esler et al. (1997) Nat Biotech 15:268-263). Briefly, 96 well microtiter plates pre-coated with aggregated amyloid β1-40 (QCB/Biosource, Hopkinton, Mass.) were additionally coated with 200 μl of a 0.1% bovine serum albumin solution in 50 mM Tris-HCl, pH 7.5 for 20 minutes to prevent non-specific binding. For measuring Aβ1-40 deposition in the presence or absence of insulysin, a 150 μl solution of 0.1 nM 125I labeled Aβ1-40 in 50 mM Tris-HCl, pH 7.5 was added to the pre-coated well and incubated for four hours. When added, insulysin (0.5 to 500 ng) was placed directly in the well at zero time. The reaction was stopped by washing off excess undeposited radiolabeled Aβ1-40 with 50 mM Tris-HCl, pH 7.5. The radiolabel deposited onto the washed well was counted in a gamma counter. In a variation of this protocol, insulysin was preincubated with ^125 I-Aβ1-40 for 60 minutes and then added to the deposition assay.
During the progression of Alzheimer's disease monomeric Aβ peptides are deposited onto senile plaques. To test whether insulysin is able to prevent the deposition of the Aβ1-40 peptide, a model system was used in which the deposition of radiolabeled Aβ1-40 onto a synthetic amyloid plaque (synthaloid) is followed (Esler et al. (1999) Methods Enzymol 309:350-74). […]

Data set [6] addresses T3, β-endorphin (Homo sapiens, UniProt P01189).
T3 construct: Human β-endorphin1-31; purchased National Institute on Drug Abuse drug supply system
T3 sequence (P01189 237-267): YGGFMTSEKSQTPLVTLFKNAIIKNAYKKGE
The data set is described as follows: Insulysin activity determination, disappearance of β-endorphin by HPLC. The data set is classed as biochemical. Particulars: 30 μM β-endorphin, 37° C. The method, then:
Materials. […] Solutions were prepared by dissolving the peptide in dimethylsulfoxide (DMSO) to give a stock concentration of 200 μM. The peptide stock was lyophilized and stored at −80° C. until use. The aggregation state of Aβ peptide stock solutions was checked by electron microscopy (Ray et al. (2000) Brain Res 853:344-351) and found to be predominantly, if not exclusively, monomeric. For the in vitro reactions with insulysin, a final concentration of 25 μM Aβ1-40 was obtained after bringing the lyophilized peptide into solution with double distilled water. […] Human β-endorphin1-31, obtained from the National Institute on Drug Abuse drug supply system, was dissolved in water to give a stock solution of 300 μM. Trifluoroacetic acid (Sigma Biochemicals, St. Louis, Mo.) was diluted into water to produce a 5% working solution.
Insulysin activity was assayed by measuring the disappearance of β-endorphin by isocratic reverse phase HPLC (Safavi et al. (1996) Biochemistry 1996 35:14318-14325). A 100 μl reaction mixture containing 40 mM potassium phosphate buffer, pH 7.2, 30 μM β-endorphin, and enzyme was incubated for 15 minutes at 37° C. […] The β-endorphin peak was detected by absorbance at 214 nm using a Waters 484 detector. The reaction was quantitated by measuring the decrease in the β-endorphin peak area.

Data set [7] relates to rat brain hippocampal neurons. The data set is described as follows: Hippocampal cell survival with Aβ1-42 with or without insulysin. The data set is classed as cell-based.
From the text: In order to determine whether the insulysin cleavage of Aβ peptides produces products which in themselves are neurotoxic, we conducted experiments using cultured primary hippocampal cells. […] An inactivated form of insulysin was used as a control.
Viable cells were detected by microscopy.
Neuronal survival was estimated as a function of time.
Data set [8] has as its target T4, pre-aggregated Aβ1-40 (Homo sapiens, UniProt P05067).
T4 construct: purchased Amersham (125I-Aβ); QCB/BioSource (synthaloid plates)
Put plainly: Degradation of pre-aggregated 125I-Aβ1-40 deposited onto synthetic amyloid. The class given is biochemical. The settings on record: 24 hr incubation with 5 μg of insulysin. The source says: During the progression of Alzheimer's disease monomeric Aβ peptides are deposited onto senile plaques. To test whether insulysin is able to prevent the deposition of the Aβ1-40 peptide, a model system was used in which the deposition of radiolabeled Aβ1-40 onto a synthetic amyloid plaque (synthaloid) is followed (Esler et al. (1999) Methods Enzymol 309:350-74). […] We also conducted an experiment in which ^125I-Aβ1-40 was first deposited onto the synthetic amyloid and then treated with insulysin to see if the enzyme could degrade pre-aggregated Aβ1-40.

The target in data set [9] is T2, Aβ1-40. The data set is described as follows: Rate of cleavage of Aβ1-40 by insulysin. The class given is biochemical. Details: purchased Bachem (Torrance, Calif.). Particulars: 25 μM Aβ1-40. The method, then:
Purified insulysin was incubated with 25 μM Aβ1-40 in 40 mM potassium phosphate buffer, pH 7.2, at 37° C. for 1 hour. The reaction products were loaded onto a C4 reverse phase HPLC column and products resolved using a linear gradient of 5 to 75% acetonitrile over 65 minutes. Products were detected by absorbance at 214 nm using a Waters 484 detector and individual product peaks were collected manually. Product analysis was also conducted on an intact reaction mixture in which products were not resolved by HPLC. Products were identified by matrix assisted laser desorption ionization time of flight mass spectrometry (MALDI-TOF-MS). The reaction of insulysin with Aβ1-42 was conducted in a similar manner with products identified by MALDI-TOF-MS directly from reaction mixtures.
Product peaks corresponding to cleavage at the His^13-His^14, His^14-Gln^15, Phe^19-Phe^20 and Phe^20-Ala^21 positions were observed.

T1 sequence (P35559 whole entry): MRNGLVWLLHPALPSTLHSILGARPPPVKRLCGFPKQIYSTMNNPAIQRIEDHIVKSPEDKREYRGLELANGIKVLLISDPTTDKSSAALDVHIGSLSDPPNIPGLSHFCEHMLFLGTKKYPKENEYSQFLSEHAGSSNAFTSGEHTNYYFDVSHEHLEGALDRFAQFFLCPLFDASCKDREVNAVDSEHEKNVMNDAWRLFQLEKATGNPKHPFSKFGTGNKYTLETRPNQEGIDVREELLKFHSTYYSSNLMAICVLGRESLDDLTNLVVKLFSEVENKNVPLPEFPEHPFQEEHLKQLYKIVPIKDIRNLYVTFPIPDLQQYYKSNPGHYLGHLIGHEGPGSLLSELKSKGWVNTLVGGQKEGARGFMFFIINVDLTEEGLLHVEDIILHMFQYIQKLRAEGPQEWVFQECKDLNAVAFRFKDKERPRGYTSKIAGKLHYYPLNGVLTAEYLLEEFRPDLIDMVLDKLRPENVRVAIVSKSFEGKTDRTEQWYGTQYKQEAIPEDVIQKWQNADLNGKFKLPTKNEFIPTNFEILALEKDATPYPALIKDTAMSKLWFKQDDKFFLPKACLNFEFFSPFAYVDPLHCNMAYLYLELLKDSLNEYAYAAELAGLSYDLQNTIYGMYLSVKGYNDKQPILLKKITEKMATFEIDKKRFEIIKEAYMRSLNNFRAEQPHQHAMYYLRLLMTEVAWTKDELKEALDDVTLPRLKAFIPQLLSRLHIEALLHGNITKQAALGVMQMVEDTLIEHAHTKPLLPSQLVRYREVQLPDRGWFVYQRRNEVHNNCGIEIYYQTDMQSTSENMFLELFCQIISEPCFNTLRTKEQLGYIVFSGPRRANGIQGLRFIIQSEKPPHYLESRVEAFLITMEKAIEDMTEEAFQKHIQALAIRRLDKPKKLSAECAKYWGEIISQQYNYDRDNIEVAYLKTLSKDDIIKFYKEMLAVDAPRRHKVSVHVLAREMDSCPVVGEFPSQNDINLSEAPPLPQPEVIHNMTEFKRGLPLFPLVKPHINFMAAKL

Regarding `C[C@]12CC[C@@H]3c4ccc(O)cc4CC[C@H]3[C@@H]1CC[C@@H]2O` [estrogen, 17β-estradiol], in data set [1], the “expression of neprilysin mRNA in the hippocampus, higher than ovariectomized rats without estrogen” value is reported as “about 300%”. Besides, in data set [2], the “increase in neprilysin activity in the hippocampus over ovariectomized rats not treated with estrogen” value is given as approximately 30%.

Regarding “Aβ1-40: amyloid beta peptide 1-40 (SEQ ID NO: 12) obtained from Bachem [reference compound]”, the “loss of cortical neurons” value in [3] (30 μM Aβ1-40, 48 hrs) is listed as “approximately 70%”.

Turning to “beta endorphin: peptide, insulysin substrate, found to increase insulysin enzymatic activity”, in data set [4], the “effect on insulysin activity” value is given as “increase insulysin enzymatic activity”.

dynorphin: the “effect on insulysin activity” value in [4] is “increase insulysin enzymatic activity”.

On to “insulysin: His6-tagged recombinant rat insulysin (insulin degrading enzyme) expressed in Sf9 cells with baculovirus, purified”, for which the “inhibition of deposition of 125I-Aβ1-40” value in [5] (50 ng of insulysin, 100 pM 125I-Aβ1-40, three hours) is on record as 50%. The “amount able to prevent the deposition of radiolabeled Aβ1-40” value in data set [5] (insulysin added with 125I-Aβ1-40 (0.1 nM), 4 hr) stood at 50 ng; in data set [5] (insulysin preincubated with 125I-Aβ1-40 for 60 minutes, 4 hr deposition), 50 ng. The specific activity in data set [6] was 2.6 μmols/min/mg. Further, in [7] (10 μM Aβ1-42 (initially monomeric), 400 ng insulin degrading enzyme, 24 hrs), the “Aβ1-42 induced cell death of hippocampal cells” value is given as “prevented Aβ1-42 induced cell death”. Moreover, the neuronal survival entry in data set [7] (insulysin added with 25 μM Aβ1-42, up to 12 hours) is listed as “survival was close to that seen in the control untreated cells”. Moreover, in data set [8], the “release of radioactivity from deposited 125I-Aβ1-40” value is given as “no radioactivity was released”. In addition, in data set [9], the “rate of cleavage of Aβ1-40” value came to 1.2 μmols/min/mg enzyme. In [3] (25 μM Aβ1-42, added simultaneously, 48 hrs), the “amount effective in sparing the neurotoxic effects of Aβ1-42” value is recorded as 500 ng. For the same molecule, the “amount effective in sparing the neurotoxic effects of Aβ1-40” value in data set [3] (30 μM Aβ1-40, added simultaneously, 48 hrs) was found to be 50 ng.
